From patent publication EP4782453A1 (Beyang Therapeutics Co., Ltd., priority 2023, dated 2025)

target: T1, Menin-MLL (Homo sapiens, UniProt O00255); test: Inhibitory activity against Menin-MLL binding (fluorescence polarization); settings: Menin-MLL IC50, fluorescence polarization; 150 nM His-Menin, 15 nM FITC-MLL; 25°C for 60 min
T1 construct: His-Menin (M1-L615 end); purchased BIORTUS BP9210
T1 sequence (O00255 1-615 isoform O00255-1): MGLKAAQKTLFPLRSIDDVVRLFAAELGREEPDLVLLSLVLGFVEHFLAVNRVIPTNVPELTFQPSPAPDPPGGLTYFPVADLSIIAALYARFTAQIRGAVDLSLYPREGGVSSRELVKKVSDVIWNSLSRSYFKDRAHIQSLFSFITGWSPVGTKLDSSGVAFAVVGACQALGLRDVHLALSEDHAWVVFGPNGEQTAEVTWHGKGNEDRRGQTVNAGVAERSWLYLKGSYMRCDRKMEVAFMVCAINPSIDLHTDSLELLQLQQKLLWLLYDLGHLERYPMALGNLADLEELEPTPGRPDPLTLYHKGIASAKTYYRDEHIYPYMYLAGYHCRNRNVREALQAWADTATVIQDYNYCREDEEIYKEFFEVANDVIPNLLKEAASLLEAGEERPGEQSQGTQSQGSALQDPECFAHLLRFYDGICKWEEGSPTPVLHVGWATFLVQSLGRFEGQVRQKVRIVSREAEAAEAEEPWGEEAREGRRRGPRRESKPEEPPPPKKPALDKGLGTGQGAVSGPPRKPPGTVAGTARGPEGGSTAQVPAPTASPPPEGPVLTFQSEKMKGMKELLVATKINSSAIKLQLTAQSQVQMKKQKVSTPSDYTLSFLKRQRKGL
Method in brief: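 Fluorescence polarization competition: compound and 150 nM His-tagged menin (residues M1-L615) sit 15 min at 25 °C in pH 7.5 HEPES buffer with NaCl, DTT and BSA; 15 nM FITC-labelled MLL peptide then binds for 60 min. IC50 fitted sigmoidally from mP values, duplicate wells.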

Row | Structure (SMILES) | IC50 [nM]
1 | CCN(C(=O)c1cc(F)ccc1-c1cc(C2CCN(C[C@H]3CC[C@H](NS(=O)(=O)CC)CC3)C2)cc2cnc(C)n12)C(C)C (mixture of isomers) [Example 35, N-ethyl-5-fluoro-2-[3-methyl-7-(1-{[(1r,4r)-4-ethanesulfonamidocyclohexyl]methyl}pyrrolidin-3-yl)imidazo[1,5-a]pyridin-5-yl]-N-(isopropyl)benzamide] | 39.5
2 | CCN(C(=O)c1cc(F)ccc1-c1cc(N2CCN(C(=O)[C@H]3N[C@@H]4CC[C@H]3C4)CC2)cn2c(C)ncc12)C(C)C [Example 88] | 52
3 | CCN(C(=O)c1cc(F)ccc1-c1cc(C2CCN(C[C@H]3CC[C@H](NS(=O)(=O)CC)CC3)CC2)nn2c(C)ncc12)C(C)C [Example 136, N-ethyl-5-fluoro-2-[7-methyl-2-(1-{[(1r,4r)-4-ethanesulfonamidocyclohexyl]methyl}piperidin-4-yl)imidazo[1,5-b]pyridazin-4-yl]-N-(isopropyl)benzamide] | 129
4 | CCN(C(=O)c1cc(F)ccc1-c1cc(C2=CCN(C(=O)C3NC4CCC3CC4)CC2)n2ccncc12)C(C)C [Example 110, N-ethyl-5-fluoro-N-(isopropyl)-2-(6-{1-[(1R,3S,4S)-2-azabicyclo[2.2.2]octan-3-carbonyl]-1,2,3,6-tetrahydropyridin-4-yl}pyrrolo[1,2-a]pyrazin-8-yl)benzamide] | 25
5 | CCN(C(=O)c1cc(F)ccc1-c1cc(C2=CCN(C(=O)C3NC4CCC3CC4)CC2)c2ccncn12)C(C)C [Example 113, N-ethyl-5-fluoro-N-(isopropyl)-2-(5-{1-[(1R,3S,4S)-2-azabicyclo[2.2.2]octan-3-carbonyl]-1,2,3,6-tetrahydropyridin-4-yl}pyrrolo[1,2-c]pyrimidin-7-yl)benzamide] | 201
6 | CCN(C(=O)c1cc(F)ccc1-c1cc(C2CCN(C(=O)[C@@H]3CCCCN3)C2)cn2c(C)ncc12)C(C)C (stereo partly shown) [Example 97] | 210
7 | CCN(C(=O)c1cc(F)ccc1-c1cc(C2CN(C(=O)[C@@H](NC)C(C)C)C2)cn2c(C)nc(F)c12)C(C)C [Example 315] | 39

same assay, conditions: fluorescence polarization; 150 nM His-Menin, 15 nM FITC-MLL; 25°C for 60 min; read-out: Menin-MLL IC50

Row | Structure (SMILES) | IC50 [nM]
8 | CCN(C(=O)c1cc(F)ccc1-c1cc(C2CN([C@@H](CN3C[C@@H](O)[C@H](O)C3)C(C)C)C2)cn2c(C)ncc12)C(C)C [Example 446-2, 2-(6-{1-[(2R)-1-[(3R,4R)-3,4-dihydroxylpyrrolidin-1-yl]-3-methylbutan-2-yl]azacyclobutan-3-yl}-3-methylimidazo[1,5-a]pyridin-8-yl)-N-ethyl-5-fluoro-N-(isopropyl)benzamide] | 44
9 | CCN(C(=O)c1cc(F)ccc1-c1cc(C2CCN(C[C@H]3CC[C@H](NC(=O)OC(C)(C)C)CC3)C2)cn2c(C)ncc12)C(C)C (mixture of isomers) [Example 29, N-[(1r,4r)-4-{[3-(8-{2-[ethyl(isopropyl)aminoformyl]-4-fluorophenyl}-3-methylimidazo[1,5-a]pyridin-6-yl)pyrrolidin-1-yl]methyl}cyclohexyl]tert-butyl carbamate] | 10.5
10 | CCN(C(=O)c1cc(F)ccc1-c1cc(C2CCN(Cc3ccc(N4CCOC4=O)cc3)C2)cn2cncc12)C(C)C (stereo not shown) [Example 41] | 92
11 | CCN(C(=O)c1cc(F)ccc1-c1cc(C2CCN(C[C@H]3C[C@H](NS(=O)(=O)CC)C3)C2)cn2c(C)ncc12)C(C)C (stereo partly shown) [Example 102] | 70.5
12 | CCN(C(=O)c1cc(F)ccc1-c1cc(N2CCN(C(=O)[C@@H]3C[C@H](OC)CN3)CC2)cn2c(C)nc(Cl)c12)C(C)C [Example 109] | 96
13 | Cc1nc(F)c2c(-c3ccc(F)cc3C(=O)N3CCOC[C@H]3C)cc(C3CN(CC4(O)CCOCC4)C3)cn12 [Example 239] | 199
14 | CC(C)N(CC(F)F)C(=O)c1cc(F)ccc1-c1cc(C2CCN(CCN3CCC(NC(=O)OC(C)(C)C)CC3)C2)cc2c1cnn2C (racemic) [Example 166, N-(1-{2-[3-(4-{2-[(2,2-difluoroethyl)(isopropyl)aminoformyl]-4-fluorophenyl}-1-methyl-1H-indazol-6-yl)pyrrolidin-1-yl]ethyl}piperidin-4-yl)tert-butyl carbamate] | 271
15 | CCN(C(=O)c1cc(F)ccc1-c1cc(C2CN(C(CCCN3CCN(CCO)CC3)C(C)C)C2)cc2c(C)ncn12)C(C)C (stereo not shown) [Example 466, N-ethyl-5-fluoro-2-[7-(1-{6-[4-(2-hydroxyethyl)piperazin-1-yl]-2-methylhexan-3-yl}azacyclobutan-3-yl)-1-methylimidazo[1,5-a]pyridin-5-yl]-N-(isopropyl)benzamide] | 2.9
16 | CCN(C(=O)c1cc(F)ccc1-c1cc(C2CCN(CC3CCCCC3)C2)cn2cncc12)C(C)C (stereo not shown) [Example 44] | 29.5
17 | CCN1CCN(CCC[C@@H](C(C)C)N2CC(c3cc(-c4ccc(F)cc4C(=O)N4CCOC[C@H]4C)c4cnc(C)n4c3)C2)CC1 [Example 324-1] | 126
18 | Cc1nc(F)c2c(-c3ccc(F)cc3C(=O)N3CCOC[C@H]3C)cc(C3CN(CC4CCN(S(C)(=O)=O)CC4)C3)cn12 [Example 273] | 44
19 | Cc1nc(F)c2c(-c3ccc(F)cc3C(=O)N3CCOC[C@H]3C)cc(C3CN([C@H](CN4CCN(C(=O)OC(C)(C)C)CC4)C(C)C)C3)cn12 [Example 366-2, 4-[(2S)-2-[3-(1-fluoro-8-{4-fluoro-2-[(3R)-3-methylmorpholin-4-carbonyl]phenyl}-3-methylimidazo[1,5-a]pyridin-6-yl)azacyclobutan-1-yl]-3-methylbutyl]piperazin-1-tert-butyl carboxylate] | 38.5
20 | CCN(C(=O)c1cc(F)ccc1-c1cc(C2CN([C@H](CCCN3CC4COCC(C3)N4C(=O)OC(C)(C)C)C(C)C)C2)cn2c(C)ncc12)C(C)C [Example 478] | 1.1
21 | CCN(C(=O)c1cc(F)ccc1-c1cc(C2CCN(CC3CCC(NS(=O)(=O)CC)CC3)C2)cn2c(C)nnc12)C(C)C (stereo not shown) [Example 80, 2-(6-{1-[(4-ethanesulfonamidocyclohexyl)methyl]pyrrolidin-3-yl}-3-methyl-[1,2,4]triazolo[4,3-a]pyridin-8-yl)-N-ethyl-5-fluoro-N-(isopropyl)benzamide] | 122
22 | CC(=O)N1CCC(CN2CC(Cc3cc(-c4ccc(F)cc4C(=O)N4[C@H](C)COC[C@H]4C)c4c(F)nc(C)n4c3)C2)CC1 [Example 228] | 130
23 | CCN(C(=O)c1cc(F)ccc1-c1cc(C2(O)CN(C[C@H]3CC[C@H](NC(=O)OC(C)(C)C)CC3)C2)cc2c1cnn2C)C(C)C [Example 79, N-[(1r,4r)-4-{[3-(4-{2-[ethyl(isopropyl)aminoformyl]-4-fluorophenyl}-1-methyl-1H-indazol-6-yl)-3-hydroxylazacyclobutan-1-yl]methyl}cyclohexyl]tert-butyl carbamate] | 279
24 | CCN(C(=O)c1cc(F)ccc1-c1cc(C2CN([C@H](CCCN3CCN(C4CC4)CC3)C(C)C)C2)cn2c(C)ncc12)C(C)C [Example 376] | 3.1
25 | Cc1nc(F)c2c(-c3ccc(F)cc3C(=O)N3[C@H](C)COC[C@H]3C)cc(CC3CN(CC4CCOCC4)C3)cn12 [Example 229] | 57
26 | CCN(C(=O)c1cc(F)ccc1-c1cc(C2CN(C(C[C@H](O)CO)C(C)C)C2)cn2c(C)ncc12)C(C)C (stereo partly drawn) [Example 437, 2-(6-{1-[(5S)-5,6-dihydroxyl-2-methylhexan-3-yl]azacyclobutan-3-yl}-3-methylimidazo[1,5-a]pyridin-8-yl)-N-ethyl-5-fluoro-N-(isopropyl)benzamide] | 12
27 | CCC(=O)N1CCC([C@H](C)N2CC(c3cc(-c4ccc(F)cc4C(=O)N4CCOC[C@H]4C)c4cnc(C)n4c3)C2)CC1 [Example 319-1, 1-{4-[(1S)-1-[3-(8-{4-fluoro-2-[(3R)-3-methylmorpholin-4-carbonyl]phenyl}-3-methylimidazo[1,5-a]pyridin-6-yl)azacyclobutan-1-yl]ethyl]piperidin-1-yl}propan-1-one] | 39
28 | CCN(C(=O)c1cc(F)ccc1-c1cc(C2CN([C@H](CCCN3CC4(COC4)C3)C(C)C)C2)cn2c(C)ncc12)C(C)C [Example 388] | 2.1
29 | CCN(C(=O)c1cc(F)ccc1-c1cc(C2CN([C@@H](CCCN3CCN(C)CC3)C(C)C)C2)cn2c(C)nnc12)C(C)C [Example 360-2, N-ethyl-5-fluoro-2-(3-methyl-6-{1-[(3S)-2-methyl-6-(4-methylpiperazin-1-yl)hexan-3-yl]azacyclobutan-3-yl}-[1,2,4]triazolo[4,3-a]pyridin-8-yl)-N-(isopropyl)benzamide] | 2690
30 | C=C1CN[C@H](C(=O)N2CCN(c3cc(-c4ccc(F)cc4C(=O)N(CC)C(C)C)c4c(Cl)nc(C)n4c3)CC2)C1 [Example 117] | 21
31 | Cc1nc(F)c2c(-c3ccc(F)cc3C(=O)N3CCOC[C@H]3C)cc(C3CN([C@@H](CC[C@@H]4CNCCO4)C(C)C)C3)cn12 [Example 245-2, (3R)-4-[5-fluoro-2-(1-fluoro-3-methyl-6-{1-[(3S)-4-methyl-1-[(2R)-morpholin-2-yl]pentan-3-yl]azacyclobutan-3-yl}imidazo[1,5-a]pyridin-8yl)benzoyl]-3-methylmorpholine] | 58
